The values that follow come from US20050171161A1, “Method of treatment or prevention of obesity” (priority 2002, published 2005).

Structures can show the parent of a compound that is named as a salt. Where two headings read alike, the source gives them in different places.

The target in series [1] is T1, recombinant human CB2 receptor (Homo sapiens, UniProt P34972).
T1 construct: expressed in transfected cells; host or cells: CHO cells (membranes)
As to the kind of experiment: CB2 Receptor Binding Assay. The procedure:
CB2 Receptor Binding Assay
The binding assay for CB2 receptor is conducted similarly, with recombinant human CB2 receptor expressed in CHO cells.

Series [2] addresses T2, recombinant human CB1 receptor (Homo sapiens, UniProt P21554).
T2 construct: expressed in transfected cells; host or cells: CHO cells (membranes)
As to the kind of experiment: Cannabinoid Receptor-1 (CB1) Binding Assay. Here is the method: Cannabinoid Receptor-1 (CB1) Binding Assay.
Binding buffer contains 50 mM Tris-HCl, pH7.4, 2.5 mM EDTA, 5 mM MgCl2, 0.5 mg/ml fatty acid free bovine serum albumin and protease inhibitors (Cat#P8340, from Sigma). To initiate the binding reaction, 5 μl of radioligand solution is added, the mixture is incubated with gentle shaking on a shaker for 1.5 hours at 30° C. The binding is terminated by using 96-well harvester and filtering through GF/C filter presoaked in 0.05% polyethylenimine. The bound radiolabel is quantitated using scintillation counter.

The next series addresses T3, 11β-HSD2 (hHSD2) (Homo sapiens, UniProt P80365).
T3 sequence (P80365 1-405): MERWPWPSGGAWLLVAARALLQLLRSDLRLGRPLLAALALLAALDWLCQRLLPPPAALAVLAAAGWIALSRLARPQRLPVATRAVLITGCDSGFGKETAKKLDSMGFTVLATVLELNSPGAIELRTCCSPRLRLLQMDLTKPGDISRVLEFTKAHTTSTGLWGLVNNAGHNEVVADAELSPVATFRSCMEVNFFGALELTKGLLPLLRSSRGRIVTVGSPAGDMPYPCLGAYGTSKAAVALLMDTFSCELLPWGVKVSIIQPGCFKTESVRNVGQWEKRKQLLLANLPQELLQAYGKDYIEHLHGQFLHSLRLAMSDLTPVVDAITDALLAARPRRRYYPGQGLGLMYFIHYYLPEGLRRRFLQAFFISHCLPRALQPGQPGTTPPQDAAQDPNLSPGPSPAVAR
As to the kind of experiment: 11β-HSD2 inhibition, Scintillation Proximity Assay. Type of series: biochemical. To be noted: SPA, tritiated cortisol, NAD. Here is the method: (§1) In vitro enzymatic activity is assessed for test compounds via a Scintillation Proximity Assay (SPA). Tritiated-cortisone substrate, NADPH cofactor and titrated compound are incubated with 11β-HSD1 enzyme at 37° C. to allow conversion to cortisol to progress. Following this incubation, protein A coated SPA beads, pre-blended with anti-cortisol monoclonal antibody and a non-specific 11β-HSD inhibitor, are added to each well. The mixture is shaken at 15° C. and then read on a liquid scintillation counter suitable for 96 well plates.
(§2) Percent inhibition is calculated relative to a non-inhibited control well, and IC50 curves are generated.
(§3) This assay is similarly applied to 11β-HSD2. Tritiated cortisol and NAD are used as the substrate and cofactor, respectively. 40 μL of substrate (25 nM ^3H-Cortisone+1.25 mM NADPH in 50 mM HEPES Buffer, pH 7.4) are added to designated wells on a 96 well plate. Solid compound is dissolved in DMSO at 10 mM followed by a subsequent 50 fold dilution in DMSO. The diluted material is then titrated 4 fold, seven times. 1 μL of each titrated compound is then added in duplicate to the substrate. To start the reaction, 10 μL of 11β-HSD1 microsome from CHO transfectants is added to each well at the appropriate concentration to yield approximately 10% conversion of the starting material. For ultimate calculation of percent inhibition, a series of wells is added that represent the assay minimum and maximum: one set that contains substrate without compound or enzyme (background), and another set that contains substrate and enzyme without any compound (maximum signal). The plates are spun briefly at a low speed in a centrifuge to pool the reagents, sealed with an adhesive strip, mixed gently, and incubated at 37° C. for 2 hours. After incubation, 45 μL of SPA beads, pre-suspended with anti-cortisol monoclonal antibody and non-specific 11β-HSD inhibitor, are added to each well. The plates are resealed and shaken gently for greater than 1.5 hours at 15° C. Data is collected on a plate based liquid scintillation counter such as a Topcount. To control for inhibition of anti-cortisol antibody/cortisol binding, substrate spiked with 1.25 nM [3]H cortisol is added to designated single wells. 1 μL of 200 μM compound is added to each of these wells, along with 10 μL of buffer instead of enzyme. Any calculated inhibition is due to compound interfering with the cortisol binding to the antibody on the SPA beads.

Another series concerns the target T4, 11β-HSD1 enzyme (hHSD1) (Homo sapiens, UniProt P28845).
T4 construct: expressed in transfected cells; host or cells: CHO transfectants (microsomes)
As to the kind of experiment: 11β-HSD1 inhibition, Scintillation Proximity Assay. It counts as biochemical. Conditions: SPA, tritiated cortisone, NADPH. The procedure: 11β-HSD1 Inhibition Constants
as §1, §2, §3

Another series concerns Calcium channel. As to the kind of experiment: Calcium channel binding. The text has this:
(§4) Ion channel assays have also been reported in the literature. The following are representative.

Another series concerns the target Potassium channel (Ikr) (Homo sapiens, UniProt Q12809). As to the kind of experiment: Potassium channel (Ikr) binding.
Excerpt: as §4

The next series relates to Sodium channel site 2. As to the kind of experiment: Sodium channel site 2 binding.
Excerpt: as §4

Setting [3] is: CHO cell membranes, [3H]CP-55940 0.6 nM, read-out: hCB1 IC50.

T2 sequence (P21554 whole entry): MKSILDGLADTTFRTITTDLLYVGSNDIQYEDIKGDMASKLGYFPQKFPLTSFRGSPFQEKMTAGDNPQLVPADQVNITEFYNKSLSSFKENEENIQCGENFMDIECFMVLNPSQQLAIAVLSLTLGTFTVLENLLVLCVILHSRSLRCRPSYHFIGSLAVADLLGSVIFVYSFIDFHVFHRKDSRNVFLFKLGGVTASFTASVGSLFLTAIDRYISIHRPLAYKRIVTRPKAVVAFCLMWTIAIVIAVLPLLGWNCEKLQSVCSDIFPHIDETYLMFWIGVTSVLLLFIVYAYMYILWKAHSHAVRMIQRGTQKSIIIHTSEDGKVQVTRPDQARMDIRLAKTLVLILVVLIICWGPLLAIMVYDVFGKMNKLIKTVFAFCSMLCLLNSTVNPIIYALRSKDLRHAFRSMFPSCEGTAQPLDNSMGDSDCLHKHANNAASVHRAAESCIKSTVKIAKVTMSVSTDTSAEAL
T4 sequence (P28845 whole entry): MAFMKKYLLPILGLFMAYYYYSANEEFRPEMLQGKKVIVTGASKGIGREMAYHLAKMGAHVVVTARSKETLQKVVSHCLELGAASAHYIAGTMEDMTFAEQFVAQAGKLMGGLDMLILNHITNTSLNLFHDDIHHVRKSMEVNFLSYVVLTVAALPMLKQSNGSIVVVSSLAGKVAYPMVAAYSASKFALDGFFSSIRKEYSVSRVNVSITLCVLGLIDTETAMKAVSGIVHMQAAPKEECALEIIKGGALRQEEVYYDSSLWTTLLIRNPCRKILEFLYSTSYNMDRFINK
T1 sequence (P34972 whole entry): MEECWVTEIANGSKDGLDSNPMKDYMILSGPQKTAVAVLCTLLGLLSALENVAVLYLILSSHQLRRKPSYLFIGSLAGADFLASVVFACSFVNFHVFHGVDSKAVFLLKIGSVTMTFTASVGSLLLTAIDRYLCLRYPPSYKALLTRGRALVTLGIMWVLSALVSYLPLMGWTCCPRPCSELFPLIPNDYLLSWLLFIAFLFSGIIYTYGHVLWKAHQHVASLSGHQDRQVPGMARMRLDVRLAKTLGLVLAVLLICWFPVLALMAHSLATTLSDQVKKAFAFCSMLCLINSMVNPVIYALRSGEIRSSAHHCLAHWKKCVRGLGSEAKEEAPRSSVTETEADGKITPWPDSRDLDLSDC
Sequence of Potassium channel (Ikr) (Q12809 whole entry): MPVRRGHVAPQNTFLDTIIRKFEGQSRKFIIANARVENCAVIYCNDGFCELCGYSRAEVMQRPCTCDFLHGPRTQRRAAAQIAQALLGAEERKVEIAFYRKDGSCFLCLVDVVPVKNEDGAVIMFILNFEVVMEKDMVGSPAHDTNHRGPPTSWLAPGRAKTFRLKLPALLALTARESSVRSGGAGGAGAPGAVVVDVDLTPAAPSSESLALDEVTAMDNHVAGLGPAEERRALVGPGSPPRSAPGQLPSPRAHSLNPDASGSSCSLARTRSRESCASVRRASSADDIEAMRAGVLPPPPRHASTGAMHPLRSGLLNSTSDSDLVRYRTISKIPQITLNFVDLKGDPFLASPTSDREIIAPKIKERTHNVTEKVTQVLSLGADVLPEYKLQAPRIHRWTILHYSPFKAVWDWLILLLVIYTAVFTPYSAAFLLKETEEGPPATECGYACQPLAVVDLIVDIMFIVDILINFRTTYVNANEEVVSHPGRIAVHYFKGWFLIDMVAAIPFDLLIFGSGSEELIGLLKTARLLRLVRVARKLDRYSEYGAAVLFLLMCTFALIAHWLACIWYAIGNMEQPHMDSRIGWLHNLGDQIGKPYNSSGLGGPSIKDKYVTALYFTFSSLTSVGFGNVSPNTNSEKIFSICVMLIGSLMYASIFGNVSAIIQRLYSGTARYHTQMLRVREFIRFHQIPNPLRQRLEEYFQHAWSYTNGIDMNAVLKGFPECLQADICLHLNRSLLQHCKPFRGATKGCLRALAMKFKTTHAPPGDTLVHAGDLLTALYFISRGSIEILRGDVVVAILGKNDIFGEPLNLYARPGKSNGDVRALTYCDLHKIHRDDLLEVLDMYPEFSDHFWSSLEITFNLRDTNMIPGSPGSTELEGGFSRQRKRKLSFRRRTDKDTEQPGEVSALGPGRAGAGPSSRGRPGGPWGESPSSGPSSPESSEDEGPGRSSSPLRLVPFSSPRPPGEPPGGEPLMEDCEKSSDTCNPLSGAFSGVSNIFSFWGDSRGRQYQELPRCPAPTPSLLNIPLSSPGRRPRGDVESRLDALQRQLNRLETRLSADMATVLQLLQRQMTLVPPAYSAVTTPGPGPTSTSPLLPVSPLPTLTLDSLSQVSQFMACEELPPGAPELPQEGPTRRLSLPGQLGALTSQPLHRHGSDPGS

For the compound `Cc1ccc(-c2nc(C(=O)NC3CCCCC3)n(C)c2-c2ccc(C)cc2)cc1` [Compound 4, N-Cyclohexyl-4,5-di-(4-methylphenyl)-1-methylimidazole-2-carboxamide], the concentration for half-maximal inhibition (IC50) was greater than 1000 nM in series [1] (CHO cells, read-out: hCB2 IC50) and 100 to 1000 nM in series [2].
Turning to `Cc1ccc(-c2nc(C(=O)NN3CCCCC3)n(C)c2-c2ccc(C)cc2)cc1` [Compound 3, N-(Piperidin-1-yl)-4,5-di-(4-methylphenyl)-1-methylimidazole-2-carboxamide], the IC50 in series [1] (CHO cells, read-out: hCB2 IC50) was greater than 1000 nM.
Take `C1CCCCc2nnc(C34CC5CC(CC(C5)C3)C4)n2CCCC1` [Compound 10, 3-adamantanyl-4,5,6,7,8,9,10,11,12,3a-decahydro-1,2,4-triazolo[4,3-a][11]annulene]: the IC50 was greater than 1000 nM at 11β-HSD2 (hHSD2) and 100 to 1000 nM against 11β-HSD1 enzyme (hHSD1).
For `CC12CC3(C)CC(C)(C1)CC(Cc1nnc4n1CCCCC4)(C2)C3` [Compound 7, 3-[(3,5,7-trimethyl-1-adamantyl)methyl]-6,7,8,9-tetrahydro-5H-[1,2,4]triazolo[4,3-a]azepine Trifluoroacetate Salt], in that order: greater than 1000 nM and 10 to 100 nM.
In the case of `COc1cc(-c2nnc(C34CC5CC(CC(C5)C3)C4)n2C)cc(OC)c1OC` [Compound 9, 3-(1-adamantyl)-5-(3,4,5-trimethoxyphenyl)-4-methyl-4H-1,2,4-triazole], the IC50 against 11β-HSD2 (hHSD2) and on 11β-HSD1 enzyme (hHSD1) was less than 10 nM each time.
Turning to `Cn1c(C(=O)Nc2ccccc2)nc(-c2ccc(Cl)cc2Cl)c1-c1ccc(Cl)cc1` [Compound 6, N-(Phenyl)-4-(2,4-dichlorophenyl)-5-(4-chlorophenyl)-1-methylimidazole-2-carboxamide], the IC50 was in the range of 100 to 1000 nM in series [1] (CHO cells, read-out: hCB2 IC50) and 10 to 100 nM in series [2] (setting [3]).
`Cn1c(C(=O)NC2CCCCC2)nc(-c2ccc(Cl)cc2Cl)c1-c1ccc(Cl)cc1` [Compound 5, N-(Cyclohexyl)-4-(2,4-dichlorophenyl)-5-(4-chlorophenyl)-1-methylimidazole-2-carboxamide]: the 50% inhibitory concentration (IC50) in series [1] is 100 to 1000 nM; in series [2], less than 10 nM. Further, in the series with Calcium channel, the Ion Channel Values Ca is 4600 nM. The Ion Channel Values K on Potassium channel (Ikr) was 5.6 µM. This compound also yielded an Ion Channel Values Na in the series on Sodium channel site 2 of 4 µM.
Regarding `Cn1c(C(=O)NN2CCCCC2)nc(-c2ccc(Cl)cc2Cl)c1-c1ccc(Cl)cc1` [Compound 2, N-(Piperidin-1-yl)-4-(2,4-dichlorophenyl)-5-(4-chlorophenyl)-1-methylimidazole-2-carboxamide], the half-maximal inhibitory concentration (IC50) in series [1] (CHO cells, read-out: hCB2 IC50) was 100 to 1000 nM; in series [2] (setting [3]), less than 10 nM. For the same compound, in the series on Calcium channel, the Ion Channel Values Ca was 1200 nM. Moreover, the Ion Channel Values K at Potassium channel (Ikr) stood at 1.3 µM. Besides, the Ion Channel Values Na in the series with Sodium channel site 2 came to 6 µM.
As to `CCSc1nnc(C23CC4CC(CC(C4)C2)C3)n1CC` [Compound 8, 3-(1-adamantyl)-4-ethyl-5-(ethylthio)-4H-1,2,4-triazole], the IC50 is greater than 1000 nM on 11β-HSD2 (hHSD2) and 10 to 100 nM against 11β-HSD1 enzyme (hHSD1).
